The test system of experiment [1] is LNCaP (prostate cancer) cells. Put plainly: Cell death (apoptosis) assay, LNCaP cells. It counts as cell-based, human. The following applies: for induced apoptosis: 4 hours; for apoptotic activity relative to fetuin prepared by other methods, later conservative estimate: conservatively estimated. As to the method:
[…] The free Zinc Acetate and Barium Acetate were removed by repetitive concentration. Fetuin was tested in LNCaP and HL-60 cells. […] Fetuin (in 10 μl PBS) at concentration of 100 ng/ml was added 3-4 hours after the cells were seeded.

For experiment [2], the system named is HL-60 (leukemia) cells. As to the kind of experiment: Cell death (apoptosis) assay, HL-60 cells. The class given is cell-based, human. The following applies: for apoptotic activity, panel of cell lines (in words): peptide fragment: 6 hours. As to the method:
Fetuin purified from fetal bovine serum by the procedure described above was dissolved in phosphate buffer saline (PBS). The free Zinc Acetate and Barium Acetate were removed by repetitive concentration. Fetuin was tested in LNCaP and HL-60 cells. […] Fetuin (in 10 μl PBS) at concentration of 100 ng/ml was added 3-4 hours after the cells were seeded.

Experiment [3] concerns Calu-1 (human lung carcinoma). Put plainly: Apoptosis assay, Calu-1 cells. It counts as cell-based. The following applies: for apoptotic activity, panel of cell lines (in words): peptide fragment: 6 hours.
For experiment [4], the system named is CCD-18 Co (human normal colon fibroblast). Put plainly: Apoptosis assay, CCD-18 Co cells. The class given is cell-based. The following applies: for apoptotic activity, panel of cell lines (in words): peptide fragment: 6 hours. An excerpt:
Zinc charged alpha 1-acid glycoprotein has no effect on CCD 18Co cells (human normal colon fibroblast).

Experiment [5] has as its system p3HR-1 (human Burkitt lymphoma). Put plainly: Apoptosis assay, p3HR-1 cells. It counts as cell-based. The following applies: peptide fragment: 6 hours.
The test system of experiment [6] is CCD25 Lu (human normal lung). As to the kind of experiment: Apoptosis assay, CCD25 Lu cells. It counts as cell-based. The following applies: peptide fragment: 6 hours.
Experiment [7] has as its system Hs578 Bst (human normal breast). As to the kind of experiment: Apoptosis assay, Hs578 Bst cells. The following applies: peptide fragment: 6 hours. It counts as cell-based.
Experiment [8] deals with cancer cell lines. Put plainly: Apoptosis assay, cancer cells (cell line not given). The class given is cell-based. The following applies: cancer cells.
The subject of experiment [9] is HT-29 (human colon adenocarcinoma). Put plainly: Apoptosis assay, HT-29 cells. The following applies: for apoptotic activity, panel of cell lines (in words): peptide fragment: 6 hours.
Procedure: Prostate cancer cell line LNCAP was routinely used for the isolation of Apogen P-1 and Apogen P-2, whereas leukemia cell line HL-60 was used for the isolation of Apogen L. The methods of assays were as follows: LNCAP or HL-60 (1,000 cells) was seeded in 10 microliters RPMI containing 15% or 20% Fetal bovine serum, penicillin and streptomycin at 37 degrees, 5% CO2 in Microtray plates (25 μl wells, Robbins Scientific Corp.). The tested sample (10 μl) was added 3-4 hours after cells were seeded. After incubation of the tested sample with cells for 15 hours, two microliters of Hoechst dye (0.03 ng/ml in PBS) was added. Two hours later, cells that were stained with Hoechst dye were examined under fluorescence microscope. […] The percentage of apoptotic cells was calculated by the following equation:
The DNA condensation, DNA fragmentation and peripheral crescents of the nuclei are characteristics of a cell under apoptosis.
For experiment [10], the system named is Hep G2 (Human hepatoma). As to the kind of experiment: Apoptosis assay, Hep G2 cells.
Experiment [11] concerns CCD 39 Lu (normal lung fibroblast). Put plainly: Apoptosis assay, CCD 39 Lu cells. It counts as cell-based, human.
Experiment [12] relates to tumor cell line P388D1 (leukemia). As to the kind of experiment: Effect of fetal fetuin on leukemia-bearing mice. It counts as in vivo, DBA/2 female mice. As to the method:
Forty DBA/2 female mice (17-20 grams; Simonsen Laboratories, Inc., Gilroy, Calif.) kept on a standard diet and water ad libitum were inoculated with tumor cell line P388D1 (ATCC cell line number CCL46). The mice were randomly segregated into groups of ten (10). Zinc-charged fetal fetuin (10 mg/ml) were intraperitoneally injected into group I at 0.002 ml/mouse, group II at 0.02 ml/mouse and group III at 0.2 ml/mouse. Group IV was the control group, which was injected with 0.5 ml of saline solution. The injections were continued for 10 days. Mortalities were recorded for 60 days. The results were expressed as the percentage increase in life span (ILS): […]

The subject of experiment [13] is MCF-7 (breast cancer) cells. As to the kind of experiment: Apoptosis assay, MCF-7 cells. The class given is cell-based.
Experiment [14] concerns PC-3 (prostate cancer). As to the kind of experiment: Apoptosis assay, PC-3 cells. It counts as cell-based. The note with it: 50 μg/ml.
The test system of experiment [15] is Colo 205 (colon cancer). As to the kind of experiment: Apoptosis assay, Colo 205 cells. The class given is cell-based. The following applies: 50 μg/ml.
Procedure: The tested sample (10 μl) was added 3-4 hours after cells were seeded. After incubation of the tested sample with cells for 15 hours, two microliters of Hoechst dye (0.03 ng/ml in PBS) was added. Two hours later, cells that were stained with Hoechst dye were examined under fluorescence microscope. […] The percentage of apoptotic cells was calculated by the following equation:
The mark [16] stands for this setting: 100 ng/ml in PBS, 15 hours, Hoechst dye.

Results on 5 molecules are retold here after patent US8247380B2, “Alpha 1-acid glycoprotein, alpha 2-HS glycoprotein, alpha 1-antitrypsin, and fragments thereof induce apoptosis in cancer cell lines” (Ambryx Biotechnology, D.C., priority 1997, dated 2012).

Entries after “also recorded” stand apart in the source; their conditions may differ.

Regarding “zinc charged alpha 1-acid glycoprotein: alpha 1-acid glycoprotein from adult human serum, EDTA treated and charged with zinc acetate”, the “apoptotic activity, panel of cell lines (in words)” value (“apoptotic activity, panel” below) in [1] is “apoptotic activity was present”; in experiment [2] it was “apoptotic activity was present”; in experiment [3] it was “apoptotic activity was present”; in [4], “no activity was present”; in experiment [5], “apoptotic activity was present”; in [6], “no activity was present; also recorded: no effect was seen”. Moreover, the “apoptotic activity, panel” value in experiment [7] is “no activity was present; also recorded: no effect was seen”; in experiment [9], “apoptotic activity was present”; in [10], “apoptotic activity was present”. For the same molecule, the “cell death (in words)” value in experiment [4] (5 μM, six hours) is reported as “did not cause cell death”. Also, in [8], the “concentration at which apoptotic activity was induced (apoptotic threshold)” value amounted to 0.75 µM. The molecule further yielded an apoptosis in [9] (5 μM, 4 hours) of 100%. Besides, the “apoptotic activity / morphology (in words)” value in experiment [9] (5 μM, 4 hours) is “resulted in the condensation and fragmentation of DNA”. In addition, in experiment [10] (5 μM, 4 hours), the cell death is 90%.
For the molecule “zinc charged alpha 1-antitrypsin: alpha 1-antitrypsin (Sigma), EDTA treated and charged with zinc acetate”, the “apoptotic activity, panel” value was “induced apoptosis” in experiment [1]; “induced apoptosis” in experiment [2]; “no effect was seen” in experiment [11]; “induced apoptosis” in experiment [3]; “no effect was seen” in [4]; “induced apoptosis” in experiment [5]. Further, the “apoptotic activity, panel” value is “no effect was seen” in experiment [6] and “induced apoptosis” in experiment [9]. In experiment [9] (5 μM, 4 hours), the “apoptotic activity / morphology (in words)” value is “caused cell shrinkage and membrane blebbing”.
On to “fetal fetuin: Zinc-charged fetal fetuin (10 mg/ml) injected intraperitoneally into mice”, for which the “mice that survived more than 58 days” value in [12] (100 mg/Kg intraperitoneally for 10 days, untreated 100% dead after 24 days) is 80%. In experiment [12] (leukemia-bearing mice treated with fetal fetuin), the “increased life span (ILS)” value turned out to be 141%.

B1: fetuin: bovine fetuin from fetal bovine serum by the modified Spiro method with zinc acetate (Section 4A) (protein, UniProt P12763 19-359, looked up)
Alpha-2-HS-glycoprotein: IPLDPVAGYKEPACDDPDTEQAALAAVDYINKHLPRGYKHTLNQIDSVKVWPRRPTGEVYDIEIDTLETTCHVLDPTPLANCSVRQQTQHAVEGDCDIHVLKQDGQFSVLFTKCDSSPDSAEDVRKLCPDCPLLAPLNDSRVVHAVEVALATFNAESNGSYLQLVEISRAQFVPLPVSVSVEFAVAATDCIAKEVVDPTKCNLLAEKQYGFCKGSVIQKALGGEDVRVTCTLFQTQPVIPQPQPDGAEAEAPSAVPDAAGPTPSAAGPPVASVVVGPSVVAVPLPLHRAHYDLRHTFSGVASVESSSGEAFHVGKTPIVGQPSIPGGPVRLCPGRIRYFKI
modifications: zinc
For the molecule B1, the “apoptosis, nuclear morphology (in words)” value in experiment [1] (setting [16]) and in experiment [2] (setting [16]) was “showed the characteristics of apoptosis” in each case. The “induction of apoptosis (in words)” value was “highly induced apoptosis” in [1] (25 μg/ml); “strongly induced apoptosis” in experiment [1] (50 μg/ml); “highly induced apoptosis” in [2] (25 μg/ml); “strongly induced apoptosis” in experiment [2] (50 μg/ml); “highly induced apoptosis” in [13] (25 μg/ml); “strongly induced apoptosis” in [13] (50 μg/ml). Moreover, the “induction of apoptosis (in words)” value in experiment [11] (25 μg/ml, 15 hours) was “inactive in inducing apoptosis”; in experiment [11] (50 μg/ml), “is not affected”; in experiment [14], “strongly induced apoptosis”; in [15], “strongly induced apoptosis”; in [3] (50 μg/ml), “strongly induced apoptosis”. Also, the induced apoptosis result in experiment [1] (25 μg/ml) and in experiment [1] (approximately 50 μM) was “up to 90%” throughout. For the same molecule, the “apoptotic activity relative to fetuin prepared by other methods, later conservative estimate” value in experiment [1] (listed as Fetuin as prepared in Section 4A) is “approximately 100 times”; in experiment [1] (listed as fetuin as prepared in Section 4A), “more than one hundred times greater”. The “apoptotic activity relative to fetuin prepared by other methods, initial estimate” value in [1] (initially estimated) was “more than fifty thousand folds higher; also recorded: more than fifty thousand times higher”.

B2: zinc charged alpha 2-HS glycoprotein: alpha 2-HS glycoprotein (Sigma), EDTA treated and charged with zinc acetate (protein, UniProt P02765 19-300; P02765 341-367, looked up)
Alpha-2-HS-glycoprotein chain … 1: APHGPGLIYRQPNCDDPETEEAALVAIDYINQNLPWGYKHTLNQIDEVKVWPQQPSGELFEIEIDTLETTCHVLDPTPVARCSVRQLKEHAVEGDCDFQLLKLDGKFSVVYAKCDSSPDSAEDVRKVCQDCPLLAPLNDTRVVHAAKAALAAFNAQNNGSNFQLEEISRAQLVPLPPSTYVEFTVSGTDCVAKEATEAAKCNLLAEKQYGFCKATLSEKLGGAEVAVTCMVFQTQPVSSQPQPEGANEAVPTPVVDPDAPPSPPLGAPGLPPAGSPPDSHVL
Alpha-2-HS-glycoprotein chain … 2: TVVQPSVGAAAGPVVPPCPGRIRHFKV
modifications: zinc charged
notes: alpha 2-HS glycoprotein (Sigma), EDTA treated and charged with zinc acetate
For the molecule B2, the “apoptotic activity, panel” value in experiment [1], in [2], in experiment [3], in experiment [5], in experiment [9] and in experiment [10] was “induced apoptosis” in each case. Further, the “apoptotic activity / morphology (in words)” value in [9] (5 μM, 4 hours) is “caused cell shrinkage and membrane blebbing”.
